# Measurements reported in paper PMC5428509, “Irreversible inhibition of BTK kinase by a novel highly selective inhibitor CHMFL-BTK-11 suppresses inflammatory response in rheumatoid arthritis model” (Scientific Reports, 2017).
# Tests used:
# Assay in all cases: biochemical
# Design in all cases: KinomeScan competition binding panel (DiscoveRx), percent of control at 1 uM
# Conditions in all cases: read-out: Percent Control
# [1] = target: T1, ABL1(F317L)-nonphosphorylated (Homo sapiens, UniProt P00519, F317L)
# T1 construct: nonphosphorylated
# Summary of the method: (§1)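 Selectivity profiled across 456 kinases/mutants by KinomeScan binding technology.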
# [2] = target: T2, ABL1(H396P)-phosphorylated (Homo sapiens, UniProt P00519, H396P)
# T2 construct: phosphorylated
# Summary of the method: as §1
# [3] = target: T3, ABL1(T315I)-phosphorylated (Homo sapiens, UniProt P00519, T315I)
# T3 construct: phosphorylated
# Summary of the method: as §1
# CAMK1D = CAMK1D (Homo sapiens, UniProt Q8IU85)
# Summary of the method: as §1
# CDK8 = CDK8 (Homo sapiens, UniProt P49336)
# Summary of the method: as §1
# CLK2 = CLK2 (Homo sapiens, UniProt P49760)
# Summary of the method: as §1
# CLK4 = CLK4 (Homo sapiens, UniProt Q9HAZ1)
# Summary of the method: as §1
# CSNK1G2 = CSNK1G2 (Homo sapiens, UniProt P78368)
# Summary of the method: as §1
# DMPK = DMPK (Homo sapiens, UniProt Q09013)
# Summary of the method: as §1
# EGFR(L858R) = EGFR(L858R) (Homo sapiens, UniProt P00533, L858R)
# Summary of the method: as §1
# FLT4 = FLT4 (Homo sapiens, UniProt P35916)
# Summary of the method: as §1
# ITK = ITK (Homo sapiens, UniProt Q08881)
# Summary of the method: as §1
# LRRK2 = LRRK2 (Homo sapiens, UniProt Q5S007)
# Summary of the method: as §1
# MAP3K3 = MAP3K3 (Homo sapiens, UniProt Q99759)
# Summary of the method: as §1
# MKNK1 = MKNK1 (Homo sapiens, UniProt Q9BUB5)
# Summary of the method: as §1
# MLK1 = target: T4, MLK1 (Homo sapiens, UniProt P80192)
# T4 construct: gene MAP3K9
# Summary of the method: as §1
# MYLK4 = MYLK4 (Homo sapiens, UniProt Q86YV6)
# Summary of the method: as §1
# NDR1 = target: T5, NDR1 (Homo sapiens, UniProt Q15208)
# T5 construct: gene STK38
# Summary of the method: as §1
# NEK7 = NEK7 (Homo sapiens, UniProt Q8TDX7)
# Summary of the method: as §1
# NIK = target: T6, NIK (Homo sapiens, UniProt Q99558)
# T6 construct: gene MAP3K14
# Summary of the method: as §1
# PAK3 = PAK3 (Homo sapiens, UniProt O75914)
# Summary of the method: as §1
# PHKG1 = PHKG1 (Homo sapiens, UniProt Q16816)
# Summary of the method: as §1
# PKMYT1 = PKMYT1 (Homo sapiens, UniProt Q99640)
# Summary of the method: as §1
# RIPK1 = RIPK1 (Homo sapiens, UniProt Q13546)
# Summary of the method: as §1
# SRPK1 = SRPK1 (Homo sapiens, UniProt Q96SB4)
# Summary of the method: as §1
# EGFR(L858R), sequence (P00533 whole entry L858R): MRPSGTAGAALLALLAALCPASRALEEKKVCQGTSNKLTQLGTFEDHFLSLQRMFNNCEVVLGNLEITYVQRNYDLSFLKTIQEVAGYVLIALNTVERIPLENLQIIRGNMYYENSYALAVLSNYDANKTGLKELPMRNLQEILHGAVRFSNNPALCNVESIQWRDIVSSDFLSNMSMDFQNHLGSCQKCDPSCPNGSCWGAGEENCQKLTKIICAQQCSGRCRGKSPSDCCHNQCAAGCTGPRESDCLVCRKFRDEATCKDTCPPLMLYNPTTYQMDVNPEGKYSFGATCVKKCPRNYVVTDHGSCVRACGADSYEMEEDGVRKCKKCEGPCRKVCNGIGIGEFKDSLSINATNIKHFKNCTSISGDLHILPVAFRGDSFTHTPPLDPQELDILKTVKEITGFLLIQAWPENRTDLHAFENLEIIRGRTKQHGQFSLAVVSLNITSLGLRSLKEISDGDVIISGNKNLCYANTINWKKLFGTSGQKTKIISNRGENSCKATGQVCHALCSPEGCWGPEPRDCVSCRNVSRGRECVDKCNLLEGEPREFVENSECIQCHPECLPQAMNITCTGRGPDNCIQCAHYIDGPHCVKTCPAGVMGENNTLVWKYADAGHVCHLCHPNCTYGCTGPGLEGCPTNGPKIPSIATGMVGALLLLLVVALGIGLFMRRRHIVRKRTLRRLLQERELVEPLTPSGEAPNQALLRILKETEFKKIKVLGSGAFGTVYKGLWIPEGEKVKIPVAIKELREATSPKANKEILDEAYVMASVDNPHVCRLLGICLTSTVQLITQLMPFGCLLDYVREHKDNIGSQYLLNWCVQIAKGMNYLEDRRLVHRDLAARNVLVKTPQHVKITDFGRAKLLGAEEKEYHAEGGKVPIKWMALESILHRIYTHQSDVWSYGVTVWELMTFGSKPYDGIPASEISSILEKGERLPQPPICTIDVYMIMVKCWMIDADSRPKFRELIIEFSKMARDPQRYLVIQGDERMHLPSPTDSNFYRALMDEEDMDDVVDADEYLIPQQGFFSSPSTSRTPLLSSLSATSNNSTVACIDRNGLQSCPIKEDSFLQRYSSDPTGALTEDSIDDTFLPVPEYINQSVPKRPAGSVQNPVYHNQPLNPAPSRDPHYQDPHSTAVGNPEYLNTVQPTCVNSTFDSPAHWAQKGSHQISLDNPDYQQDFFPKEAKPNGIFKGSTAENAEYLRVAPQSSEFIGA
# NEK7, sequence (Q8TDX7 whole entry): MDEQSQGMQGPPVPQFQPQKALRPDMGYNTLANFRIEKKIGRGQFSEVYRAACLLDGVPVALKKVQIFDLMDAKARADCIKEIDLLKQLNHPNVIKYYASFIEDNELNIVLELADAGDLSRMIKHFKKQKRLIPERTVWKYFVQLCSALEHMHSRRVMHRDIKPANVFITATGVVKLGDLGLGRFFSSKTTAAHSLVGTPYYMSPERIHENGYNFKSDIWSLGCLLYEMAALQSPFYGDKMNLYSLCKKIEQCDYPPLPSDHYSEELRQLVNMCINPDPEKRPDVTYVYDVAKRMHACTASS
# MKNK1, sequence (Q9BUB5 whole entry): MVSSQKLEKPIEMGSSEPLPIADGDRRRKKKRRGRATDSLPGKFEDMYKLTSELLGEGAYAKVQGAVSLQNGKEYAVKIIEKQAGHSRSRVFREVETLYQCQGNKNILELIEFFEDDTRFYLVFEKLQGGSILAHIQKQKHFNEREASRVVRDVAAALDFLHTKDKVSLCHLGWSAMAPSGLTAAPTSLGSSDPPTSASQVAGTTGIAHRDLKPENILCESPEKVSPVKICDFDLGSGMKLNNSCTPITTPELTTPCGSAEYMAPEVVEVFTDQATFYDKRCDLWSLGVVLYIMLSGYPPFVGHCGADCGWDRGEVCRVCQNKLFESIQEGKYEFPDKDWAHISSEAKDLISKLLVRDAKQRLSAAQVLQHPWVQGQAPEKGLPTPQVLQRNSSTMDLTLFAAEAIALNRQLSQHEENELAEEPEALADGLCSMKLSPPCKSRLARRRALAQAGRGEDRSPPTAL
# CLK4, sequence (Q9HAZ1 whole entry): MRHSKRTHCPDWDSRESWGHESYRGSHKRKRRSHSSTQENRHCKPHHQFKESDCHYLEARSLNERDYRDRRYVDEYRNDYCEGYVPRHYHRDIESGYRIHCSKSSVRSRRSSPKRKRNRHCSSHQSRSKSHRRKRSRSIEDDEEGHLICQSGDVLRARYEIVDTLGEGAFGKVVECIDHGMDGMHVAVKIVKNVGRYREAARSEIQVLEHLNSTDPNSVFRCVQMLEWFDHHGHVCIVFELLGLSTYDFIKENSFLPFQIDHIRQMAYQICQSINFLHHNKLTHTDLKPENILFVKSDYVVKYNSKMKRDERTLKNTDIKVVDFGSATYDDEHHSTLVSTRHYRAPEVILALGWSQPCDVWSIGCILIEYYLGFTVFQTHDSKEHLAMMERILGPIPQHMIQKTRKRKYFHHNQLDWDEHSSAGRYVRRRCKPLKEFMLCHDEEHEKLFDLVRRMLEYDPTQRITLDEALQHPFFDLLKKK
# CLK2, sequence (P49760 whole entry): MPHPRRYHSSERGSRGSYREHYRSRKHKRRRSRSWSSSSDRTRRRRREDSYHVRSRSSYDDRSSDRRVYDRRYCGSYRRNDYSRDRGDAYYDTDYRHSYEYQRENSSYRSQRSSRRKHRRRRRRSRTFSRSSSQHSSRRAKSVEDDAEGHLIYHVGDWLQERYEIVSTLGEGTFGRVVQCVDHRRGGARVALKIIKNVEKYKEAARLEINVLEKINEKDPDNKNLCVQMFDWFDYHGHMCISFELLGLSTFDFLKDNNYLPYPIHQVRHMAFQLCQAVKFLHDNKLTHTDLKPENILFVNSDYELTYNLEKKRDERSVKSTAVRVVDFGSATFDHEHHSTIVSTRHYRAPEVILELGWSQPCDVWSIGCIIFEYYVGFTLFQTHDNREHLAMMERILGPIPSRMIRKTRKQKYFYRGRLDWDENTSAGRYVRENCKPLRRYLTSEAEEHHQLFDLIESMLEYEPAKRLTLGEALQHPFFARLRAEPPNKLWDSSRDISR
# RIPK1, sequence (Q13546 whole entry): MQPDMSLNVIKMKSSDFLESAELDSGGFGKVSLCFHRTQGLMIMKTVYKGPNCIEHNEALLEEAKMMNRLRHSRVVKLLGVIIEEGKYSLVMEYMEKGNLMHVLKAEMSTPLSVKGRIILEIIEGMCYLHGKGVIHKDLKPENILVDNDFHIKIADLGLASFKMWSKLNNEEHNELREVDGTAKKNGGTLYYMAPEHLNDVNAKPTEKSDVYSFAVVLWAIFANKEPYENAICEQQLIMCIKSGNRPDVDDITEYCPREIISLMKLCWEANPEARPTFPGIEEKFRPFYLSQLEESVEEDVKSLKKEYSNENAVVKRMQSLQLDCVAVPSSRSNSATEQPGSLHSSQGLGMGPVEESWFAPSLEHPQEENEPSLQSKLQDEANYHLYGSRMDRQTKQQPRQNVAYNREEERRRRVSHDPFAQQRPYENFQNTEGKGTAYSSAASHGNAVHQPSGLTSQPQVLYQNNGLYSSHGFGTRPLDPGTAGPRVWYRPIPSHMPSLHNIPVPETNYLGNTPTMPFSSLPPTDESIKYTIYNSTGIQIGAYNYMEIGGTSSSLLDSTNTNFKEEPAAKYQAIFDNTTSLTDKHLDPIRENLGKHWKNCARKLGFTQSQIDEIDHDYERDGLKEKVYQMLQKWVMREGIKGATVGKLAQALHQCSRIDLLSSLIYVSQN
# PAK3, sequence (O75914 whole entry): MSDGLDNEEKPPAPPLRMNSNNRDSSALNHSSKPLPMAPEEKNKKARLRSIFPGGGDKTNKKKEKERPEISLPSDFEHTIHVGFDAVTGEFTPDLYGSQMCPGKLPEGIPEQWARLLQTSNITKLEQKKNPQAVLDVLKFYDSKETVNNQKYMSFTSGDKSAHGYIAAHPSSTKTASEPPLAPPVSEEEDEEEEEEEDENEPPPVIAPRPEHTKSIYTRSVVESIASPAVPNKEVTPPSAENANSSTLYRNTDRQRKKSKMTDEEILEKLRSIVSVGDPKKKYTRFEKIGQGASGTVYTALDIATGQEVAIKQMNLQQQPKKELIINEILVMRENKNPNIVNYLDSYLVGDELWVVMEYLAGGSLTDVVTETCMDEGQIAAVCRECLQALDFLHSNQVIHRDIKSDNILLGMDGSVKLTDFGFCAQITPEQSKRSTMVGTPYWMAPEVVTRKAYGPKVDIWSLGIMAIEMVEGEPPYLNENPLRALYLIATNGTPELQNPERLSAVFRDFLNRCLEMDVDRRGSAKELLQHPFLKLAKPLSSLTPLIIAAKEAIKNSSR
# ITK, sequence (Q08881 whole entry): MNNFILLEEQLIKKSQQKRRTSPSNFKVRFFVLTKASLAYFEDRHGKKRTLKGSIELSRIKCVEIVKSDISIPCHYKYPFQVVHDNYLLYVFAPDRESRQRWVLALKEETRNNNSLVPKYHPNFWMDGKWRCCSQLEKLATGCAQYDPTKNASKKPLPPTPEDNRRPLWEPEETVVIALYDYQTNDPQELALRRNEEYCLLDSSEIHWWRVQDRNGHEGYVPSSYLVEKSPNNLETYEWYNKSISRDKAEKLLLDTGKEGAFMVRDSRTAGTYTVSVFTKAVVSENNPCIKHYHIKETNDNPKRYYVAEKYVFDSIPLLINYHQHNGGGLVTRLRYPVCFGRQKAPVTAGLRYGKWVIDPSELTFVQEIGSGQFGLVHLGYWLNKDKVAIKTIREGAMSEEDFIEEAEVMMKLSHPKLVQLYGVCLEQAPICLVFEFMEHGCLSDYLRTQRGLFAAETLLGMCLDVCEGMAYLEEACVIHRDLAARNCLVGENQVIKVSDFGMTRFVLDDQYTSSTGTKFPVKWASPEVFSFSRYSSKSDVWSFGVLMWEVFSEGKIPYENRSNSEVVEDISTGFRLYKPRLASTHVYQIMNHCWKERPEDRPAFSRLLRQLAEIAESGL
compound,measurement,setting,value
C=CC(=O)Nc1cc(-n2c(=O)ccc3cnc4ccc(-n5cccn5)cc4c32)ccc1C [CHMFL-BTK-11],remaining binding at 1 µM,[1],96%
same,remaining binding at 1 µM,[2],100%
same,remaining binding at 1 µM,[3],100%
same,remaining binding at 1 µM,CAMK1D,100%
same,remaining binding at 1 µM,CDK8,91%
same,remaining binding at 1 µM,CLK2,100%
same,remaining binding at 1 µM,CLK4,90%
same,remaining binding at 1 µM,CSNK1G2,100%
same,remaining binding at 1 µM,DMPK,100%
same,remaining binding at 1 µM,EGFR(L858R),70%
same,remaining binding at 1 µM,FLT4,100%
same,remaining binding at 1 µM,ITK,100%
same,remaining binding at 1 µM,LRRK2,96%
same,remaining binding at 1 µM,MAP3K3,100%
same,remaining binding at 1 µM,MKNK1,92%
same,remaining binding at 1 µM,MLK1,100%
same,remaining binding at 1 µM,MYLK4,100%
same,remaining binding at 1 µM,NDR1,68%
same,remaining binding at 1 µM,NEK7,100%
same,remaining binding at 1 µM,NIK,100%
same,remaining binding at 1 µM,PAK3,94%
same,remaining binding at 1 µM,PHKG1,100%
same,remaining binding at 1 µM,PKMYT1,94%
same,remaining binding at 1 µM,RIPK1,90%
same,remaining binding at 1 µM,SRPK1,100%
